From patent US10034886B2, “GLP-1 receptor modulators” (Celgene International II SÀRL, priority 2014, dated 2018)
pEC50: −log10 of the molar value. Read-outs that look alike come from different tables or passages of the source.

Target: T1, GLP-1R (Homo sapiens, UniProt P43220)
T1 construct: host or cells: GLP-1R CRE-bla CHO-K1 cells
Assay: EC20 GLP-1(9-36) PAM cAMP assay: dose response of compound in the presence of fixed concentration of GLP-1(9-36)
Assay type: cell-based
Conditions: GLP-1R CRE-bla CHO-K1 cells, read-out: EC20 GLP-1(9-36) PAM EC50
Protocol: EC20 GLP-1(9-36) PAM cAMP Assay: Dose Response of Compound in the Presence of Fixed Concentration of GLP-1 (9-36).
GLP-1R CRE-bla CHO-K1 cells cultured in growth medium (DMEM-High glucose, 10% dialyzed FBS, 0.1 mM NEAA, 25 mM Hepes, 100 U/mL penicillin/100 μg/mL streptomycin, 5 μg/mL Blasticidin, 600 μg/mL Hygromycin) were trypsinized and plated in suspension into 384 well white flat bottom plates at 5000 cells/well in 12 μL assay buffer (Hanks Balanced Salt solution, 10 mM hepes, 0.1% BSA, pH 7.4). A 5× compound dose response curve (12-point) was generated in assay buffer containing 1.5 mM IBMX, 4% DMSO. GLP-1(9-36) was diluted to 4.2 μM in assay buffer containing 1.5 mM IMBX and 4% DMSO. The 5× compound dose response was added (3 μL), followed by 0.5 μL of GLP-1(9-36) and cells were incubated for 30 min at 37° C. Direct detection of cAMP was carried out using DiscoveRx HitHunter cAMP kit according to manufacturer's instructions and luminescence was read using a SpectraMax M5 plate reader. Luminescence was converted to total cAMP using a cAMP standard curve and data was analyzed by non-linear regression to determine the EC50 and Emax.
GLP-1(7-36): […]-NH2 (SEQ ID NO: 2). GLP-1(9-36): […]-NH2 (SEQ ID NO: 3). GLP-1(7-36) was purchased from GenScript. GLP-1(9-36) was purchased from Biopeptide Co., Inc.
The EC20GLP-1(9-36) PAM Activity range is denoted as follows: + denotes activity <0.8 μM, ++ denotes activity between 0.8 and 2.5 μM, +++ denotes activity between 2.5 and 5 μM, and ++++ denotes activity 5 to 10 μM.

[1] = dose response of compound in presence of fixed concentration of GLP-1(9-36)
[2] = compound dose response with fixed concentration of GLP-1(9-36)

T1 sequence (P43220 24-463): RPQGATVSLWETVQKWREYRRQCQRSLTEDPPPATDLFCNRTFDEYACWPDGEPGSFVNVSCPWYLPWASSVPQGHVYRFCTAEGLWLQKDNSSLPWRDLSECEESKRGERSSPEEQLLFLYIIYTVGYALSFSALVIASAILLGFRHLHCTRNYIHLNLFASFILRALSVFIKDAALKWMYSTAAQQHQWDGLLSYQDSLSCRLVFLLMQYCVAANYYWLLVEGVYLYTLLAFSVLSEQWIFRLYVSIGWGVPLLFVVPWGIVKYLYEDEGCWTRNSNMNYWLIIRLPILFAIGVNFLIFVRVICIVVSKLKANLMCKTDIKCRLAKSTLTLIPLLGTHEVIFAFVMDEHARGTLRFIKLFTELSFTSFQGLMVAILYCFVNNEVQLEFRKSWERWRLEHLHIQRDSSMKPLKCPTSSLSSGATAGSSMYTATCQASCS
T1 sequence (P01275 100-127 partner limits assumed): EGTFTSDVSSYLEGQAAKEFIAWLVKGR

SMILES	pEC50 [1]	pEC50 [2]
CCCCCCCOc1ccc(-c2cnc(-c3ccc(CC(NC(=O)c4ccc(C(C)(C)C)s4)C(=O)N[C@@H](Cc4ccc(O)cc4)C(=O)O)cc3)nc2)cc1 (stereo partly drawn) [Compound 428]	5.60 to 6.10	
Cc1ccc(-c2ccc(-c3cnc(-c4ccc(C[C@H](NC(=O)c5ccc(C(C)(C)C)s5)C(=O)N[C@H](C)C(=O)O)cc4)nc3)cc2)c(F)c1 [Compound 1148]	> 6.10	
CC(C)(C)c1ccc(C(=O)N[C@@H](Cc2ccc(-c3ncc(-c4ccc(-c5ccc(C(F)(F)F)cc5F)cc4F)cn3)cc2)C(=O)N2CC(C(=O)O)C2)s1 [Compound 1222]		> 6.10
CC(C)(C)c1ccc(C(=O)N[C@@H](Cc2ccc(-c3ncc(-c4ccc(-c5cccc(OC(F)(F)F)c5)cc4F)cn3)cc2)C(=O)N2CC(C(=O)O)C2)s1 [Compound 1215]		> 6.10
CCCc1ccc(-c2cnc(-c3ccc(C[C@H](NC(=O)c4ccc(C(C)(C)C)cc4)C(=O)NCCC(=O)O)cc3)nc2)cc1 [Compound 687]	5.30 to 5.60	
CCCCCCCOc1ccc(-c2cnc(-c3ccc(CC(NC(=O)c4ccc(C(C)(C)C)s4)C(=O)N[C@@H](CC(C)C)C(=O)O)cc3)nc2)cc1 (stereo partly drawn) [Compound 408]	5.60 to 6.10	
CCCCCCCOc1ccc(-c2cnc(-c3ccc(C[C@H](NC(=O)c4ccc(C(C)(C)C)s4)C(=O)N[C@@H](CC(=O)N[C@@H](C)C(=O)O)C(=O)O)cc3)nc2)cc1 [Compound 516]	> 6.10	
Cc1cc(-c2cnc(-c3ccc(C[C@H](NC(=O)c4ccc(C(C)(C)C)s4)C(=O)N4CCC[C@H]4C(=O)O)cc3)nc2)ccc1OC(C)C [Compound 1127]	5.60 to 6.10	
CCC[C@H]1CC[C@H](C2CCN(c3cnc(-c4ccc(C[C@H](NC(=O)c5ccc(C(C)(C)C)nc5)C(=O)N5CC(C(=O)O)C5)cc4)nc3)CC2)CC1 [Compound 1531]		> 6.10
CCCCCCCOc1ccc(-c2cnc(-c3ccc(C[C@H](NC(=O)c4ccc(C(C)(C)C)s4)C(=O)N4CCC[C@H]4C(=O)NS(C)(=O)=O)cc3)nc2)cc1 [Compound 495]	> 6.10	
CCSc1ccc(-c2cnc(-c3ccc(C[C@H](NC(=O)c4ccc(C(C)(C)C)s4)C(=O)N[C@H](C)C(=O)O)cc3)nc2)cc1 [Compound 998]	5.30 to 5.60	
CCC[C@H]1CC[C@H](C2CCN(c3cnc(-c4ccc(C[C@H](NC(=O)c5ccc(C(C)(C)C)s5)C(=O)NC5(C(=O)O)CCCC5)cc4)nc3)CC2)CC1 [Compound 1470]		> 6.10
CC[C@H]1CC[C@H](c2ccc(-c3cnc(-c4ccc(C[C@H](NC(=O)c5ccc(C(C)(C)C)s5)C(=O)NCCC(=O)O)cc4)nc3)cc2)CC1 [Compound 1324]		> 6.10
CC(C)Oc1ccc(-c2cnc(-c3ccc(C[C@H](NC(=O)c4ccc(C(C)(C)C)cc4)C(=O)NCCC(=O)O)cc3)nc2)cc1 [Compound 695]	5.30 to 5.60	
CCCc1ccc(C(=O)N[C@@H](Cc2ccc(-c3ncc(-c4ccc([C@H]5CC[C@H](CC)CC5)cc4)cn3)cc2)C(=O)N2CC(C(=O)O)C2)cc1 [Compound 1156]	> 6.10	
C[C@@H](NC(=O)[C@H](Cc1ccc(-c2ncc(/C=C/c3ccsc3)cn2)cc1)NC(=O)c1ccc(C(C)(C)C)s1)C(=O)O [Compound 1257]		5.30 to 5.60
CC1CCC(C2CCN(c3cnc(-c4ccc(C[C@H](NC(=O)c5ccc(C(C)(C)C)s5)C(=O)N5CC(C(=O)O)C5)cc4)nc3)CC2)CC1 (stereo partly drawn) [Compound 1427]		> 6.10
CCCCCCCOc1ccc(-c2cnc(-c3ccc(C[C@H](NC(=O)c4ccc(C(C)(C)C)s4)C(=O)NCC4(C(=O)O)CCNCC4)cc3)nc2)cc1 [Compound 606]	5.60 to 6.10	
COc1ccc(C(=O)N[C@@H](Cc2ccc(-c3ncc(-c4ccc(OCCCC(C)C)cc4)cn3)cc2)C(=O)N2CC(C(=O)O)C2)cc1 [Compound 1229]		5.30 to 5.60
CCCCCCCOc1ccc(-c2cnc(-c3ccc(C[C@H](NC(=O)c4ccc(C(C)(C)C)cc4)C(=O)NCCC(=O)O)cc3)nc2)c(Cl)c1 [Compound 701]	5.30 to 5.60	
CCC[C@H]1CC[C@H](C2CCN(c3cnc(-c4ccc(C[C@H](NC(=O)c5ccc(C(C)(C)C)s5)C(=O)NC5(C(=O)O)CC5)cc4)nc3)CC2)CC1 [Compound 1453]		> 6.10
CC(C)COc1ccc(-c2cnc(-c3ccc(C[C@H](NC(=O)c4ccc(C(C)(C)C)s4)C(=O)N4CC(C(=O)O)C4)cc3)nc2)cc1 [Compound 789]	5.30 to 5.60	
CCCCCCCOc1ccc(-c2cnc(-c3ccc(C[C@H](NC(=O)c4ccc(C(C)(C)C)s4)C(=O)N4CC=CC4C(=O)O)cc3)nc2)cc1 (stereo partly drawn) [Compound 610]	> 6.10	

SMILES	pEC50 [1]	pEC50 [2]
CCCCCCCOc1ccc(-c2cnc(-c3ccc(C[C@H](NC(=O)c4ccc(C(C)(C)C)s4)C(=O)N[C@@H](C(=O)O)[C@H](C)O)cc3)nc2)cc1 [Compound 664]	5.30 to 5.60	
CCCCCCCOc1ccc(-c2cnc(-c3ccc(C[C@H](NC(=O)c4ccc(CCCC)cc4)C(=O)N[C@H](C)C(=O)O)cc3)nc2)cc1 [Compound 821]	5.60 to 6.10	
CCCCCCCOc1ccc(-c2cnc(-c3ccc(C[C@H](NC(=O)c4ccc(O)c(F)c4)C(=O)N[C@H](C)C(=O)O)cc3)nc2)cc1 [Compound 983]	5.00 to 5.30	
CCCCCCCOc1ccc(-c2cnc(-c3ccc(C[C@H](NC(=O)c4ccc(C(C)(C)C)s4)C(=O)N[C@H]4C[C@H](N)C4)cc3)nc2)cc1 [Compound 1281]		5.30 to 5.60
CCCCCCCOc1ccc(-c2cnc(-c3ccc(C[C@H](NC(=O)c4ccc(CC)cc4)C(=O)N4CC[C@H](C(=O)O)C4)cc3)nc2)cc1 [Compound 855]	5.60 to 6.10	
C[C@@H](NC(=O)[C@H](Cc1ccc(-c2ncc(/C=C/c3cc(C(F)(F)F)cc(C(F)(F)F)c3)cn2)cc1)NC(=O)c1ccc(C(C)(C)C)s1)C(=O)O [Compound 1261]		5.60 to 6.10
Cc1cc(C)n(-c2ccc(-c3cnc(-c4ccc(C[C@H](NC(=O)c5ccc(C(C)(C)C)s5)C(=O)N[C@H](C)C(=O)O)cc4)nc3)cc2)n1 [Compound 1006]	5.60 to 6.10	
CCC[C@H]1CC[C@H](C2CCN(c3cnc(-c4ccc(C[C@H](NC(=O)c5ccc(C(C)(C)C)s5)C(=O)N[C@H](CCC(N)=O)C(=O)O)cc4)nc3)CC2)CC1 [Compound 1445]		> 6.10
CC(C)Oc1ccc(-c2ccc(-c3cnc(-c4ccc(C[C@H](NC(=O)c5ccc(C(C)(C)C)s5)C(=O)N5CC(C(=O)O)C5)cc4)nc3)c(F)c2)cc1 [Compound 1396]		> 6.10
CCCCCCCOc1ccc(-c2cnc(-c3ccc(CC(NC(=O)c4ccc(C(C)(C)C)s4)C(=O)NCCCC(=O)O)cc3)nc2)cc1 (stereo not drawn) [Compound 429]	5.30 to 5.60	
CCCCCCCOc1ccc(-c2cnc(-c3ccc(C[C@H](NC(=O)c4ccc(C(C)(C)C)s4)C(=O)NC(COC)C(=O)O)cc3)nc2)cc1 (stereo partly drawn) [Compound 595]	> 6.10	
CC(C)(C)c1ccc(C(=O)N[C@@H](Cc2ccc(-c3ncc(N4CCC(c5cccc(C(F)(F)F)c5)CC4)cn3)cc2)C(=O)N2CC(C(=O)O)C2)s1 [Compound 1482]		5.60 to 6.10
CCC[C@H]1CC[C@H](C2CCN(c3cnc(-c4ccc(C[C@H](NC(=O)c5cc6cc(OC)ccc6[nH]5)C(=O)N5CC(C(=O)O)C5)cc4)nc3)CC2)CC1 [Compound 1525]		> 6.10
CCCCCCCOc1ccc(-c2cnc(-c3ccc(C[C@H](NC(=O)c4ccc(C(C)(C)C)s4)C(=O)N4C[C@@H](F)C[C@@H]4C(=O)O)cc3)nc2)cc1 [Compound 871]	5.30 to 5.60	
COCCc1ccc(C2CCN(c3cnc(-c4ccc(C[C@H](NC(=O)c5ccc(C(C)(C)C)s5)C(=O)N5CC(C(=O)O)C5)cc4)nc3)CC2)cc1 [Compound 1495]		5.60 to 6.10
CC[C@H]1CC[C@@H](c2ccc(-c3cnc(-c4ccc(C[C@H](NC(=O)c5ccc(C(C)(C)C)s5)C(=O)O)cc4)nc3)c(F)c2)CC1 [Compound 1362]		> 6.10
CC(C)(C)c1ccc(C(=O)N[C@@H](Cc2ccc(-c3ncc(-c4ccc(OCCC5CCCC5)cc4)cn3)cc2)C(=O)NC(C(=O)O)C(O)c2ccccc2)s1 (stereo partly drawn) [Compound 939]	5.30 to 5.60	
CCCCCCCOc1ccc(-c2cnc(-c3ccc(C[C@H](NC(=O)c4ccc(C(C)(C)C)cc4)C(=O)NC(CC)C(=O)O)cc3)nc2)cc1 (stereo partly drawn) [Compound 548]	> 6.10	
CCCCCCCOc1ccc(-c2cnc(-c3ccc(C[C@H](NC(=O)c4ccc(C(C)(C)C)cc4)C(=O)NC(CC(=O)O)c4cccnc4)cc3)nc2)cc1 (stereo partly drawn) [Compound 571]	5.60 to 6.10	
CC(C)(C)c1ccc(C(=O)N[C@@H](Cc2ccc(-c3ncc(-c4ccc(OCC5CC5)cc4)cn3)cc2)C(=O)NCCC(=O)O)cc1 [Compound 684]	5.00 to 5.30	
CCCCCCCOc1ccc(-c2cnc(-c3ccc(C[C@H](NC(=O)c4ccc(C(C)(C)C)cc4)C(=O)N4C[C@H](N(C)C)C[C@H]4C(=O)O)cc3)nc2)cc1 [Compound 622]	5.60 to 6.10	
CCCCCCCOc1ccc(-c2cnc(-c3ccc(C[C@H](NC(=O)c4ccc(C5CC5)cc4)C(=O)N4CC(C(=O)O)C4)cc3)nc2)cc1 [Compound 1111]	5.60 to 6.10	
